Measured values from patent US12016864B2, “LOX enzyme inhibiting methods and compositions” (ANOVIA BIOSCIENCES, INC., priority 2021, dated 2024).

Columns and labels:
[1] = biological target: T1, Recombinant human LOXL2 (lysyl oxidase like 2) (Homo sapiens, UniProt Q9Y4K0); test: LOXL2 inhibition assay, fluorometric (cadaverine / HRP / Amplex Red); type: biochemical; settings: recombinant human LOXL2 130 nM; 30 min preincubation at 37° C.; 2.5 mM cadaverine; read-out: Activity Range LOXL2
T1 construct: purchased R&D systems
T1 sequence (Q9Y4K0 26-774): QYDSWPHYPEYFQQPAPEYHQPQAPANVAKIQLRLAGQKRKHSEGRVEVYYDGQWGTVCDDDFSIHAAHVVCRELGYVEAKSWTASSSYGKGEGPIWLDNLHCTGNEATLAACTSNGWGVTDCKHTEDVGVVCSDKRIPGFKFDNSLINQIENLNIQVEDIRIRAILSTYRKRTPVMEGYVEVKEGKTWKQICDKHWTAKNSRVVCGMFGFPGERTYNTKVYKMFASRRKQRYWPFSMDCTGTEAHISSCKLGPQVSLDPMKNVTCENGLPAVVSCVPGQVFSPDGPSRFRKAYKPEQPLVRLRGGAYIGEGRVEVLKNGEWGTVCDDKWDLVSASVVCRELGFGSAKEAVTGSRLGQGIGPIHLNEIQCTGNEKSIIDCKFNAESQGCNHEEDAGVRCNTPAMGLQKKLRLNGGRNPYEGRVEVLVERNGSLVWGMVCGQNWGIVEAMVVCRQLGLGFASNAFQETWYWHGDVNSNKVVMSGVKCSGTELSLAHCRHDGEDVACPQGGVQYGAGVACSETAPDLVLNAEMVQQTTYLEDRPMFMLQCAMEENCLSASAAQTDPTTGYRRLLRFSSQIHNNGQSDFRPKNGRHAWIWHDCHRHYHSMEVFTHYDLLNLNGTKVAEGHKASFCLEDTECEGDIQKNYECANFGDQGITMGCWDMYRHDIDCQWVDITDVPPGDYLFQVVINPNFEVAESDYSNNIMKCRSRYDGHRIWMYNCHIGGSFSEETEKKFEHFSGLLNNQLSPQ
Method in brief: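 Recombinant human LOXL2 or LOXL3 in 1.2 M urea, 50 mM sodium borate pH 8.0, 10 mM CaCl, preincubated with compound 30 min at 37 °C. Cadaverine substrate added; H2O2 detected by HRP/Amplex Red fluorescence, read kinetically for 60 min at 37 °C. Initial-rate slopes, background-subtracted and normalised to DMSO, fitted to a 4-parameter curve with bottom fixed at 0.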

[2] = biological target: T2, Recombinant human LOXL3 (lysyl oxidase like 3) (Homo sapiens, UniProt P58215); test: LOXL3 inhibition assay, fluorometric (cadaverine / HRP / Amplex Red); type: biochemical; settings: recombinant human LOXL3 150 nM; 30 min preincubation at 37° C.; 1 mM cadaverine; read-out: Activity Range LOXL3
T2 construct: purchased R&D systems
T2 sequence (P58215 26-753): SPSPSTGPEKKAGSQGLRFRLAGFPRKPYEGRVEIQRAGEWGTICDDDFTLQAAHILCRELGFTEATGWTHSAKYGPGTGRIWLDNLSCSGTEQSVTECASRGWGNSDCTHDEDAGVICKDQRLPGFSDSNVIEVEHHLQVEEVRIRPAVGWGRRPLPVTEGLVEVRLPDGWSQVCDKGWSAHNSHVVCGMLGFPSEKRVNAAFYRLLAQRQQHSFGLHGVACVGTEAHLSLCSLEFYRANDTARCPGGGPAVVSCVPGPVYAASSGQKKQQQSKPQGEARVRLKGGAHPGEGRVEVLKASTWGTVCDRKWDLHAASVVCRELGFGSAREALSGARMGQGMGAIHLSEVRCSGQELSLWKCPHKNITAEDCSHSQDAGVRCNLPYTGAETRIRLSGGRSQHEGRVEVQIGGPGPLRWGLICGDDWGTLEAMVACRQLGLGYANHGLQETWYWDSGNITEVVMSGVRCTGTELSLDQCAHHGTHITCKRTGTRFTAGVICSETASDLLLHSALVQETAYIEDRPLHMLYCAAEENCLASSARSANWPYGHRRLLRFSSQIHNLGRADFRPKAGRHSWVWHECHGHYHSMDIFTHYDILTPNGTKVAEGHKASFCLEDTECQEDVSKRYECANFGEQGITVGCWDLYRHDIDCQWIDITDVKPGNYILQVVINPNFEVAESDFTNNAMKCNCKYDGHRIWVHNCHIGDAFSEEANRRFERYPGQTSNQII
Description: The ability of compounds to inhibit one or more of the lysyl oxidases LOXL2 and/or LOXL3 was determined using a fluorometric assay. This assay measures the activity of lysyl oxidases by coupling the reaction with horseradish peroxidase-catalyzed […]. The activity assay protocol uses cadaverine as substrate that releases hydrogen peroxide upon transformation by the specific LOX family enzyme present in the sample. Hydrogen peroxide is in turn detected using a red fluorescence substrate for HRP-coupled reactions (Amplex Red Enzyme Assays, Thermo Scientific Fisher). This leads to increase in fluorescence that can be easily detected at Ex/Em=540/590 nm in a fluorescence microplate reader.
Recombinant human LOXL2 (lysyl oxidase like 2) and recombinant human LOXL3 (lysyl oxidase like 3) were purchased from R&D systems and assays were performed in 1.2 M urea, 50 mM sodium borate buffer pH 8.0, and 10 mM CaCl.
5 μl of freshly prepared reaction buffer were delivered to reaction wells. Compounds were resuspended in 100% DMSO at 10 mM and delivered into buffer using acoustic technology (Echo550; nanoliter range). A 3× solution of LOXL2 or LOXL3 in reaction buffer was prepared (“enzyme solution”) and 5 μL of enzyme solution was added into the reaction wells. Buffer only was added to column 1 for no protein control. Reactions were incubated for 30 minutes at 37° C. A 3× mixture of cadaverine, Amplex Red, and HRP (“Substrate/Detection Mix) was prepared and subsequently 5 μL of the mixture added to each reaction well. Progress of reactions was monitored for 60 minutes at 37° C. using Clariostar plate reader (ex 530-12, ems 600-40). For all activity assays, pan-LOX inhibitor CCT365623 (Tang et al, 2017) and LOXL2/LOXL3 inhibitor PAT-1251 (PharmaKea) were included as standards.
For the data analysis, the slope of the linear portion of the progress curve was calculated using Clariostar software. Typical analysis interval was between 8-30 min, but varied between experiments. The background-subtracted signals (No protein wells are considered as background) were converted to % activity relative to DMSO controls. Data was analyzed using GraphPad Prism 4 with “sigmoidal dose-response (variable slope)”; 4 parameters with Hill Slope. Constraints: Bottom=Constant equal to 0. Top=Must be less than 120.

| IC50 [1] [nM] | IC50 [2] [nM] | Compound |
| --- | --- | --- |
| ≤ 500 | ≤ 500 | NCc1ccnc(S(=O)(=O)C[C@@H]2C[C@H](c3ccccc3)CN2S(=O)(=O)N2CCOCC2)c1 (racemic) [Example 195, Cis-(2-(((1-(Morpholinosulfonyl)-4-phenylpyrrolidin-2-yl)methyl)sulfonyl)pyridin-4-yl)methanamine 2,2,2-trifluoroacetate] |
| ≤ 500 | ≤ 500 | NCc1ccnc(S(=O)(=O)C[C@@H]2C[C@H](c3ccccc3)CN2S(=O)(=O)N2CCS(=O)(=O)CC2)c1 (racemic) [Example 196, cis-4-((2-(((4-(Aminomethyl)pyridin-2-yl)sulfonyl)methyl)-4-phenylpyrrolidin-1-yl)sulfonyl)thiomorpholine 1,1-dioxide 2,2,2-trifluoroacetate] |
| ≤ 500 | ≤ 500 | NCc1ccnc(S(=O)(=O)C[C@H]2C[C@@H](c3ccccc3)CN2S(=O)(=O)N2CCOCC2)c1 (single isomer, unassigned) [Example 195A] |
| ≤ 500 | ≤ 500 | NCc1ccnc(S(=O)(=O)C[C@@H]2C[C@H](c3ccccc3)CN2S(=O)(=O)N2CCOCC2)c1 (single isomer, unassigned) [Example 195B] |
| ≤ 500 | ≤ 500 | NCc1ccnc(S(=O)(=O)C[C@@H]2C[C@H](c3ccccc3)CN2S(=O)(=O)N2CCS(=O)(=O)CC2)c1 [Example 196A, 4-(((2S,4R)-2-(((4-(aminomethyl)pyridin-2-yl)sulfonyl)methyl)-4-phenylpyrrolidin-1-yl)sulfonyl)thiomorpholine 1,1-dioxide 2,2,2-trifluoroacetate] |
| ≤ 500 | ≤ 500 | NCc1ccnc(S(=O)(=O)C[C@H]2C[C@@H](c3ccccc3)CN2S(=O)(=O)N2CCS(=O)(=O)CC2)c1 [Example 196B, 4-(((2R,4S)-2-(((4-(aminomethyl)pyridin-2-yl)sulfonyl)methyl)-4-phenylpyrrolidin-1-yl)sulfonyl)thiomorpholine 1,1-dioxide 2,2,2-trifluoroacetate] |
